{
  "source": "paper PMC9607266",
  "about": "“Drug–Drug Interaction Study to Evaluate the Pharmacokinetics, Safety, and Tolerability of Ipatasertib in Combination with Darolutamide in Patients with Advanced Prostate Cancer” (Pharmaceutics, 2022)",
  "key": {"[1]": {"assay": "Phase Ib DDI study: plasma PK of darolutamide and keto-darolutamide at steady state in combination with ipatasertib", "conditions": "male, human, plasma, oral", "experimental": "This was an open-label, multicenter, Phase Ib study designed to assess the safety, tolerability, and the drug–drug interaction of the combined administration of 400 mg QD oral ipatasertib and 600 mg BID oral darolutamide. […] For this study, no prospective calculations of the statistical power were made; the sample size selected was based on a typical sample size used for DDI studies. […] Figure 1 presents an overview of the study design.\nPlasma concentrations of ipatasertib and its metabolite M1 were determined using a previously reported, validated liquid chromatography–tandem mass spectrometry assay (LC-MS/MS). The lower and upper limit of the quantitation for ipatasertib and M1 was 0.500 ng/mL and 400 ng/mL, respectively. Stable labeled internal standards were used for both analytes. Plasma concentrations of darolutamide and keto-darolutamide were determined by a validated bioanalytical assay using supported liquid extraction and LC-MS/MS detection by Labcorp Early Drug Development Laboratories Inc. (Madison, WI, USA). […] The diastereomers of darolutamide, (S, R)-darolutamide, and (S, S)-darolutamide, were quantified as one entity from a single chromatographic peak. The MS/MS transitions monitored for detection were m/z 399.2 to 178.1 for darolutamide, m/z 397.1 to 136.0 for keto-darolutamide, and 478.2 to 221.0 for the internal standard apalutamide. […]"}, "[2]": {"conditions": "cited from earlier work"}, "CYP3A4": {"system": "CYP3A4", "conditions": "concomitant administration of darolutamide and midazolam; cited from earlier work"}, "[3]": {"conditions": "compared with enzalutamide and apalutamide; cited from earlier work"}, "[4]": {"conditions": "darolutamide with itraconazole; cited from earlier work"}, "[5]": {"conditions": "single-agent darolutamide from the literature, geometric mean (%CV)"}},
  "data": [
    {"smiles": "CC(O)c1cc(C(=O)N[C@@H](C)Cn2ccc(-c3ccc(C#N)c(Cl)c3)n2)[nH]n1", "note": "(stereo partly drawn) [Darolutamide]", "values": [
      {"measurement": "Tmax", "setting": "[1]", "result": 4.23, "unit": "h"},
      {"measurement": "time to steady state", "setting": "[2]; 600 mg BID", "result": "2 to 5", "unit": "days"},
      {"measurement": "increase in bioavailability when administered with food", "setting": "[2]", "result": "2.0- to 2.5 fold"},
      {"measurement": "effective t1/2", "setting": "[2]; in patients", "result": "approximately 20 h"},
      {"measurement": "time at which Cmax is reached", "setting": "[2]; single 600 mg oral dose", "result": "approximately 4 h"},
      {"measurement": "AUC0–t,ss", "setting": "[2]; [5]", "result": "52.82 (33.9) h·µg/mL"},
      {"measurement": "Cmax,ss", "setting": "[2]; [5]", "result": "4.79 (30.9) µg/mL"},
      {"measurement": "AUC0–12 h,ss", "setting": "[2]; single-agent darolutamide", "result": 52820, "unit": "ng·h/mL"},
      {"measurement": "reduction of midazolam exposures", "setting": "CYP3A4", "result": "~ 29%"},
      {"measurement": "penetration of the blood–brain barrier", "setting": "[3]", "result": "lower penetration of the blood–brain barrier"},
      {"measurement": "increase in AUC0–∞ when combined with itraconazole", "setting": "[4]", "result": 1.7, "unit": "fold"},
      {"measurement": "increase in Cmax when combined with itraconazole", "setting": "[4]", "result": 1.4, "unit": "fold"}
    ]}
  ]
}
